Measurements as given in ChEMBL document CHEMBL5252673, “Development of thiazole-appended novel hydrazones as a new class of α-amylase inhibitors with anticancer assets: an in silico and in vitro approach” (RSC Med Chem, 2023).
Values belong to the compound of their own block, whether it stands above or below them. Active and inactive are the calls of the source. No cut-off for these calls is given here.

Tests used:
[1] = biological target: Alpha amylase (Homo sapiens) (UniProt P0DUB6); experiment: Binding affinity to alpha-amylase (unknown origin) assessed as gibb's free energy change ar a temperature of 310.15 K by fluorescence quenching analysis
[2] = biological target: Alpha amylase (Homo sapiens) (UniProt P0DUB6); experiment: Binding affinity to alpha-amylase (unknown origin) assessed as quenching constant at a temperature of 310.15 K by fluorescence quenching analysis
[3] = biological target: Alpha amylase (Homo sapiens) (UniProt P0DUB6); experiment: Binding affinity to alpha-amylase (unknown origin) assessed as quenching constant at a temperature of 288.15 K by fluorescence quenching analysis
[4] = biological target: Alpha amylase (Homo sapiens) (UniProt P0DUB6); experiment: Binding affinity to alpha-amylase (unknown origin) assessed as gibb's free energy change ar a temperature of 283.15 K by fluorescence quenching analysis
[5] = biological target: Alpha amylase (Homo sapiens) (UniProt P0DUB6); experiment: Binding affinity to alpha-amylase (unknown origin) assessed as Stem-Volmer quenching constant at a temperature of 288.15 K by fluorescence quenching analysis
[6] = biological target: Alpha amylase (Homo sapiens) (UniProt P0DUB6); experiment: Binding affinity to alpha-amylase (unknown origin) assessed as increase in intensity of absorption peak at 285 nm by […]
[7] = biological target: Alpha amylase (Homo sapiens) (UniProt P0DUB6); experiment: Binding affinity to alpha-amylase (unknown origin) assessed as gibb's free energy change ar a temperature of 288.15 K by fluorescence quenching analysis
[8] = biological target: Alpha amylase (Homo sapiens) (UniProt P0DUB6); experiment: Binding affinity to alpha-amylase (unknown origin) assessed as gibb's free energy change ar a temperature of 278.15 K by fluorescence quenching analysis
[9] = biological target: Alpha amylase (Homo sapiens) (UniProt P0DUB6); experiment: Binding affinity to alpha-amylase (unknown origin) assessed as decrease in fluorescence intensity of tyrosine residue by Synchronous fluorescence analysis
HCT-116 = experiment: Antiproliferative activity against human HCT-116 cells assessed as inhibition of cell growth incubated for 48 hrs by MTT assay; format: functional, cell-based; details: HCT-116, 48 h
[10] = biological target: Alpha amylase (Homo sapiens) (UniProt P0DUB6); experiment: Binding affinity to alpha-amylase (unknown origin) assessed as change in entropy by fluorescence quenching analysis
[11] = biological target: Alpha amylase (Homo sapiens) (UniProt P0DUB6); experiment: Binding affinity to alpha-amylase (unknown origin) assessed as equilibrium binding constant at a temperature of 278.15 K by fluorescence quenching analysis
[12] = biological target: Alpha amylase (Homo sapiens) (UniProt P0DUB6); experiment: Binding affinity to alpha-amylase (unknown origin) assessed as increase in intensity of absorption peak at 280 nm by […]
[13] = biological target: Alpha amylase (Homo sapiens) (UniProt P0DUB6); experiment: Binding affinity to alpha-amylase (unknown origin) assessed as assessed as non-uniform change in fluorescence intensity of tryptophan residue by Synchronous fluorescence analysis
[14] = biological target: Alpha amylase (Homo sapiens) (UniProt P0DUB6); experiment: Binding affinity to alpha-amylase (unknown origin) assessed as change in enthalpy by fluorescence quenching analysis
[15] = biological target: Alpha amylase (Homo sapiens) (UniProt P0DUB6); experiment: Binding affinity to alpha-amylase (unknown origin) assessed as Stem-Volmer quenching constant at a temperature of 278.15 K by fluorescence quenching analysis
[16] = biological target: Alpha amylase (Homo sapiens) (UniProt P0DUB6); experiment: Binding affinity to alpha-amylase (unknown origin) assessed as equilibrium binding constant at a temperature of 288.15 K by fluorescence quenching analysis
MDA-MB-231 = experiment: Antiproliferative activity against human MDA-MB-231 cells assessed as inhibition of cell growth incubated for 48 hrs by MTT assay; format: functional, cell-based; details: MDA-MB-231, 48 h
MCF-10A = experiment: Cytotoxicity against human MCF-10A assessed as reduction in cell viability upto 10 uM incubated for 48 hrs by MTT assay; format: toxicity, cell-based
[17] = biological target: Alpha amylase (Homo sapiens) (UniProt P0DUB6); experiment: Binding affinity to alpha-amylase (unknown origin) assessed as equilibrium binding constant at a temperature of 283.15 K by fluorescence quenching analysis
[18] = biological target: Alpha amylase (Homo sapiens) (UniProt P0DUB6); experiment: Binding affinity to alpha-amylase (unknown origin) assessed as equilibrium binding constant at a temperature of 310.15 K by fluorescence quenching analysis
[19] = biological target: Alpha amylase (Homo sapiens) (UniProt P0DUB6); experiment: Binding affinity to alpha-amylase (unknown origin) assessed as increase in absorption intensity by measuring appearance of new peak at 380 nm at 0.001 M by […]
A549 [20] = experiment: Induction of ROS in human A549 cells at sub IC50 concentration incubated for 24 hrs by H2DCFDA dye based fluorescence assay (reference value: 33.28%); format: functional
[21] = biological target: Alpha amylase (Homo sapiens) (UniProt P0DUB6); experiment: Binding affinity to alpha-amylase (unknown origin) assessed as quenching constant at a temperature of 283.15 K by fluorescence quenching analysis
Alpha amylase = biological target: T1, Alpha amylase (Homo sapiens, UniProt P0DUB6); experiment: Inhibition of alpha-amylase (unknown origin) using starch as substrate preincubated with substrate for 15 mins followed by compound addition and measured after 15 mins by UV-VIS spectrophotometric analysis
T1 sequence (P0DUB6 whole entry): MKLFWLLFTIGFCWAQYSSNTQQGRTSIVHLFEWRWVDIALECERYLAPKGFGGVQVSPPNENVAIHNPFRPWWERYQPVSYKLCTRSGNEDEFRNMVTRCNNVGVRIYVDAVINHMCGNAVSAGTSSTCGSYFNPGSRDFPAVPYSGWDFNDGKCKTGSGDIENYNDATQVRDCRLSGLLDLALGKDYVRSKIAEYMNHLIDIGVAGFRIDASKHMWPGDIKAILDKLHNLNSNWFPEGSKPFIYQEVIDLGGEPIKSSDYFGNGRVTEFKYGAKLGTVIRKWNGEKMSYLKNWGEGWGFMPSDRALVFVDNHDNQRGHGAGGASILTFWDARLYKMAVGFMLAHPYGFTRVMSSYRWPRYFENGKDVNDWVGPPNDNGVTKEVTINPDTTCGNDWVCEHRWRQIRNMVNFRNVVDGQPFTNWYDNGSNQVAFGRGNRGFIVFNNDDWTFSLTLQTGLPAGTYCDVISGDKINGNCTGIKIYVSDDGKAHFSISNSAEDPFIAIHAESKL

[22] = biological target: Alpha amylase (Homo sapiens) (UniProt P0DUB6); experiment: Binding affinity to alpha-amylase (unknown origin) assessed as Stem-Volmer quenching constant at a temperature of 283.15 K by fluorescence quenching analysis
[23] = biological target: Alpha amylase (Homo sapiens) (UniProt P0DUB6); experiment: Binding affinity to alpha-amylase (unknown origin) assessed as Stem-Volmer quenching constant at a temperature of 310.15 K by fluorescence quenching analysis
A549 [24] = experiment: Antiproliferative activity against human A549 cells assessed as inhibition of cell growth incubated for 48 hrs by MTT assay; format: functional, cell-based; details: A549, 48 h
[25] = biological target: Alpha amylase (Homo sapiens) (UniProt P0DUB6); experiment: Binding affinity to alpha-amylase (unknown origin) assessed as quenching constant at a temperature of 278.15 K by fluorescence quenching analysis
Pancreatic alpha-amylase = biological target: T2, Pancreatic alpha-amylase (Sus scrofa, UniProt P00690); experiment: Inhibition of porcine pancreatic alpha-amylase using starch as substrate incubated for 10 mins by absorbance based assay
T2 sequence (P00690 whole entry): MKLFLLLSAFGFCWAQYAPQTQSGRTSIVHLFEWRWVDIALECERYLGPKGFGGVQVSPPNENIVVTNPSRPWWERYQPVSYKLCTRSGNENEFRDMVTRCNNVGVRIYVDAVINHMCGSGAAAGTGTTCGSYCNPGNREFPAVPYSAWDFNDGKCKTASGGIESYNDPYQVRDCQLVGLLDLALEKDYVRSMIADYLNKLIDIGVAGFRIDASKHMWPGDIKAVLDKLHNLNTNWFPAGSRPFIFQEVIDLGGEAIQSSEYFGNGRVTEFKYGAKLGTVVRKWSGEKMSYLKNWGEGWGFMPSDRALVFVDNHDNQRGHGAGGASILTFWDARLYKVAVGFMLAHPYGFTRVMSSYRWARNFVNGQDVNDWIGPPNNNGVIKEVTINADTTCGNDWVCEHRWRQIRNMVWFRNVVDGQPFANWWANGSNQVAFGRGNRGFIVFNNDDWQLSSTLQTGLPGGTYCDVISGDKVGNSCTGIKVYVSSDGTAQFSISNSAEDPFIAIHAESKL

deltaG [1]: -0.507 kcal/mol | Kq [2]: 1.88 10^13L/mol/s | Kq [3]: 2.46 10^13L/mol/s | deltaG [4]: -6.7 kcal/mol | KSV [5]: 0.24 10^5L/mol/s | Activity [6]: Dose-Dependent Effect | deltaG [7]: -5.69 kcal/mol | deltaG [8]: -7.71 kcal/mol | Activity [9]: Active | IC50 (HCT-116): 8.33 µM | deltaS [10]: -847 J/mol/K | Kb [11]: 6.32 10^6L/mol | Activity [12]: Dose-Dependent Effect | Activity [13]: Active | deltaH [14]: -6.4 kcal/mol | KSV [15]: 1.6 10^5L/mol/s | Kb [16]: 0.00254 10^6L/mol | IC50 (MDA-MB-231): 11.4 µM | Kb [17]: 0.102 10^6L/mol | Kb [18]: 442000 L/mol | Activity [19]: Active | Kq [21]: 9.36 10^13L/mol/s | IC50 (Alpha amylase): 0.23 µM | KSV [22]: 0.93 10^5L/mol/s | KSV [23]: 0.188 10^5L/mol/s | IC50 (A549 [24]): 7.44 µM | Kq [25]: 16.8 10^13L/mol/s
Compound: O=C(N/N=C/c1ccc(O)cc1)c1csc(Nc2ccc([N+](=O)[O-])cc2)n1
Activity (MCF-10A): Non-Toxic | Activity (A549 [20]): 64.21%

IC50 (Pancreatic alpha-amylase): 0.59 µM
Compound: COc1ccc(CNC(=O)Nc2sc3c(c2C#N)CCCC3)c(OC)c1
